These are literature values, as cited in paper PMC2785207 (The Journal of Biological Chemistry, 2009).

For one data set, the system named is CobB. The conditions noted are these: E. coli sirtuin CobB; ref [17], [18].
The next data set concerns Sir2. Conditions: reaction product; reacts with the O-alkylamidate to regenerate NAD+ and acetyl lysine; ref [14], [15].

`Cc1cc2nc[nH]c2cc1C` [5,6-dimethylbenzimidazole]: in the data set on CobB, the “ribosylation by CobB” value is on record as “ribosylates”.
Regarding `NC(=O)c1cccnc1` [nicotinamide], the “inhibition of the Sir2 deacetylation reaction” value in the data set on Sir2 was “inhibited”.
